{
  "source": "paper PMC11073428",
  "about": "“The activity of pyrazolo[4,3-e][1,2,4]triazine and pyrazolo[4,3-e]tetrazolo[1,5-b][1,2,4]triazine sulphonamide derivatives in monolayer and spheroid breast cancer cell cultures” (Journal of Enzyme Inhibition and Medicinal Chemistry, 2024)",
  "key": {"[1]": {"system": "caspase 9 in MDA-MB-231 cells", "assay": "Activity of caspase 9, MDA-MB-231", "format": "cell-based, human", "details": "MDA-MB-231, 0.5 µM, 24 h", "description": "(§1) MCF-7 and MDA-MB-231 cells were plated in six-well plates at density 1 × 10^6 and cultured in DMEM for 24 h. […] Then to identify the involvement of caspase family in inducing apoptosis, cells were pre-treated with Z-VAD-FMK (100 µM) 2 h before adding compounds[28]. The activation of caspases 9, 10, and 3/7 was detected as described before."}, "p53 in MDA-MB-231 cells": {"system": "p53 in MDA-MB-231 cells", "assay": "Anti-p53 antibody flow cytometry, MDA-MB-231", "format": "cell-based, human", "details": "MDA-MB-231, 0.25 µM and 0.5 µM, 24 h", "description": "(§2) To evaluate the molecular mechanism of induction of apoptosis of tested compounds, the level of p53, NF-κB, mTOR, Bax, and beclin-1 was measured using appropriate antibody according to the manufacturer’s instruction. In brief, tryspinised cells were centrifuged, then supernatant was discarded, and cells were suspended in 4% FA (formaldehyde). Prepared samples were incubated 15 min at RT. Following incubation, the 2.5 mL PBS was added to each sample and centrifuged. Then, supernatant was discarded, and cells were resuspended in 90% ice-cold methanol to perform permeabilisation and left for 1 h in ice. To remove methanol, cells were rinsed with excess PBS by centrifugation. Following centrifugation, the supernatant was discarded. Then, cells were resuspended in 100 µL of appropriate diluted (1:100 in PBS) antibody conjugate (p53 (7F5) Rabbit mAb – Alexa Fluor 488 Conjugate #5429 Cell Signalling Technology, Danvers, MA; NF-κB p65 (D14E12) XP Rabbit mAb – Alexa Fluor 647 Conjugate #8801 Cell Signalling Technology, Danvers, MA; mTOR (7C10) Rabbit mAB – Alexa Fluor 647 #5048 Cell Signalling Technology, Danvers, MA; FITC Anti-Bax antibody (T22-A) #ab139543, Abcam, Cambridge, UK) and incubated 1 h in the dark at RT. Afterwards, cells were washed by centrifugation in 2 mL of incubation buffer. Finally, supernatant was removed and 300 µL PBS was added to each sample and pipetted. […]"}, "[2]": {"system": "beclin-1 in MDA-MB-231 cells", "assay": "Anti-beclin-1 antibody flow cytometry, MDA-MB-231", "format": "cell-based, human", "details": "MDA-MB-231, 0.5 µM, 24 h", "description": "(§3) The fixation and permeabilisation were performed as described above. Cells were resuspended in 100 µL of diluted primary antibody (1:100 in PBS, anti-beclin 1 antibody (2A4) #ab114071, Abcam, Cambridge, UK) and incubated 30 min in the dark at RT. The cells were washed three times by centrifugation in PBS. Then to each probe, 100 µL of diluted fluorochrome-labelled secondary antibody (1:100 in PBS; goat anti-mouse IgG H&L – Alexa Fluor 488 #ab150113, Abcam, Cambridge, UK) was added and incubated 30 min in dark at RT. Then, cells were rinsed with 2.5 mL PBS. In the last step, supernatant was discarded and cells were resuspended in 300 µL PBS and pipetted. The analysis was carried out by flow cytometry."}, "p53 in MCF-7 cells": {"system": "p53 in MCF-7 cells", "assay": "Anti-p53 antibody flow cytometry, MCF-7", "format": "cell-based, human", "details": "MCF-7, 0.25 µM and 0.5 µM, 24 h", "description": "as §2"}, "Bax in MDA-MB-231 cells": {"system": "Bax in MDA-MB-231 cells", "assay": "Anti-Bax antibody flow cytometry, MDA-MB-231", "format": "cell-based, human", "details": "24 h", "description": "(§4) To evaluate the molecular mechanism of induction of apoptosis of tested compounds, the level of p53, NF-κB, mTOR, Bax, and beclin-1 was measured using appropriate antibody according to the manufacturer’s instruction. In brief, tryspinised cells were centrifuged, then supernatant was discarded, and cells were suspended in 4% FA (formaldehyde). Prepared samples were incubated 15 min at RT. Following incubation, the 2.5 mL PBS was added to each sample and centrifuged. Then, supernatant was discarded, and cells were resuspended in 90% ice-cold methanol to perform permeabilisation and left for 1 h in ice. To remove methanol, cells were rinsed with excess PBS by centrifugation. Following centrifugation, the supernatant was discarded. Then, cells were resuspended in 100 µL of appropriate diluted (1:100 in PBS) antibody conjugate (p53 (7F5) Rabbit mAb – Alexa Fluor 488 Conjugate #5429 Cell Signalling Technology, Danvers, MA; NF-κB p65 (D14E12) XP Rabbit mAb – Alexa Fluor 647 Conjugate #8801 Cell Signalling Technology, Danvers, MA; mTOR (7C10) Rabbit mAB – Alexa Fluor 647 #5048 Cell Signalling Technology, Danvers, MA; FITC Anti-Bax antibody (T22-A) #ab139543, Abcam, Cambridge, UK) and incubated 1 h in the dark at RT. Afterwards, cells were washed by centrifugation in 2 mL of incubation buffer. Finally, supernatant was removed and 300 µL PBS was added to each sample and pipetted. The analysis was performed by flow cytometry (BD FACSCanto II, Becton Dickinson Biosciences Systems, San Jose, CA) using FACSDiva software ver. 6.1.3."}, "[3]": {"system": "caspase 10 in MCF-7 cells", "assay": "Activity of caspase 10, MCF-7", "format": "cell-based, human", "details": "24 h", "description": "as §1"}, "[4]": {"system": "MDA-MB-231 breast cancer cells", "assay": "MTT viability assay, MDA-MB-231", "procedure": "Following 24-h incubation with tested compounds, the medium was discarded from the cell cultures. Then, into each well with cells was added 1 mL of PBS and 50 µL of MTT solution (5 mg per mL). Cells were incubated at 37 °C and 5% CO2 in humidified atmosphere for a defined time appropriate for each cell line. After incubation, the solution above the cells was removed and obtained purple formazan crystals were dissolved in 1 mL DMSO. The absorbance was read at OD = 570 nm on Evolution 201 Spectrophotometer (Thermo Scientific, Waltham, MA)."}, "caspase 9 in MCF-7 cells": {"system": "caspase 9 in MCF-7 cells", "assay": "Activity of caspase 9, MCF-7", "format": "cell-based, human", "details": "MCF-7, 0.5 µM, 24 h", "description": "as §1"}, "NF-κB in MCF-7 cells": {"system": "NF-κB in MCF-7 cells", "assay": "Anti-NF-κB antibody flow cytometry, MCF-7", "format": "cell-based, human", "details": "24 h, control 97.2 ± 0.6%", "description": "as §2"}, "beclin-1 in MCF-7 cells": {"system": "beclin-1 in MCF-7 cells", "assay": "Anti-beclin-1 antibody flow cytometry, MCF-7", "format": "cell-based, human", "details": "MCF-7, 0.5 µM, 24 h", "description": "as §3"}, "Bax in MCF-7 cells": {"system": "Bax in MCF-7 cells", "assay": "Anti-Bax antibody flow cytometry, MCF-7", "format": "cell-based, human", "details": "24 h", "description": "as §4"}, "mTOR in MCF-7 cells": {"system": "mTOR in MCF-7 cells", "assay": "Anti-mTOR antibody flow cytometry, MCF-7", "format": "cell-based, human", "details": "MCF-7, 0.25 µM and 0.5 µM, 24 h", "description": "as §2"}, "MCF-7 spheroids": {"system": "MCF-7 spheroids", "assay": "3D spheroid culture, MCF-7", "format": "cell-based, human", "description": "The 3D cell culture was carried out with 6-Well Bio-Assembler Kit in accordance with the manufacturer’s instructions (Greiner Bio-One GmbH, Frickenhausen, Germany). First, MCF-7 and MDA-MB-231 were cultured in 2D using procedure and supplied to 80% confluency and treated with nanoshuttle at concentration of 1 µL/10 000 cell and incubated overnight. Following incubation, the medium was removed, and the cells were detached by trypsin–EDTA solution and resuspended in DMEM. The cells were counted using Scepter 2.0 Handheld Automated Cell Counter (Merck, Darmstadt, Germany) and plated at the concentration 1 × 10^6 cells per well in six-well plate. Then, cells were gently tilted in the flask to evenly distribute the nanoparticle and incubated (37 °C, 5% CO2, 95–98% humidity) for 1 h with magnet on the top of the plate. The cells self-assemble to spheroids. The obtained 3D cell culture was incubated until analysis.\nThe visualisation of the morphological changes in 3D cell culture of MCF-7 and MDA-MB-231 was evaluated using microscope (Nikon Eclipse Ti, Tokyo, Japan).\nThe mean ± standard deviation (SD) for all data is presented. One-way and two-way analysis of variance (ANOVA) was conducted followed by Dunnett’s test. GraphPad 8.0.1 Prism software (GraphPad Software, San Diego, CA) was used for calculation. The analysis of spheroids area was carried out using ImageJ software from the NIH (Bethesda, MD)."}, "[5]": {"system": "MCF-7 breast cancer cells", "assay": "Apoptosis, annexin V-FITC/PI flow cytometry, MCF-7", "format": "cell-based, human", "details": "24 h", "description": "The analysis was performed using flow cytometry Apoptosis Detection Kit II (BD Biosciences, San Diego, CA) as described previously."}, "in vitro": {"assay": "in vitro", "details": "human"}},
  "data": [
    {"smiles": "Cc1nn(-c2ccc(S(=O)(=O)N[C@@H](CO)Cc3ccccc3)cc2)c2nn3nnnc3nc12", "note": "[Compound 3b, (R)-N-(1-hydroxy-3-phenylpropan-2-yl)-4-(7-methyl-5H-pyrazolo[4,3-e]tetrazolo[1,5-b][1,2,4]triazin-6-yl)benzenesulfonamide]", "values": [
      {"measurement": "cells with active caspase 9", "setting": "[1]", "value": "55.9 ± 1.2", "unit": "%"},
      {"measurement": "melting point", "value": "170 to 172", "unit": "°C"},
      {"measurement": "effect on p53 (in words)", "setting": "p53 in MDA-MB-231 cells", "value": "activates p53"},
      {"measurement": "cells with active beclin-1", "setting": "[2]", "value": "8.1 ± 0.1", "unit": "%"},
      {"measurement": "effect on p53 (in words)", "setting": "p53 in MCF-7 cells", "value": "activates p53"},
      {"measurement": "cells with active Bax", "setting": "Bax in MDA-MB-231 cells; MDA-MB-231, 0.25 µM", "value": "6.3 ± 0.4", "unit": "%"},
      {"measurement": "cells with active Bax", "setting": "Bax in MDA-MB-231 cells; MDA-MB-231, higher concentration (0.5 µM)", "value": "16.9 ± 3.7", "unit": "%"},
      {"measurement": "cells with active caspase 10", "setting": "[3]; MCF-7, 0.25 µM", "value": "12.9 ± 0.8", "unit": "%"},
      {"measurement": "cells with active caspase 10", "setting": "[3]; MCF-7, 0.5 µM", "value": "70.8 ± 1.1", "unit": "%"},
      {"measurement": "IC50", "setting": "[4]; Homo sapiens, MDA-MB-231, 24 h, read-out: Cytotoxicity IC50 MDA-MB-231", "value": "310 ± 140", "unit": "nM"},
      {"measurement": "times stronger than the corresponding sulphonyl derivative (2a or 2b), MDA-MB-231", "setting": "[4]; ratio of cytotoxicity, 3a vs 2a, 3b vs 2b", "value": 25, "unit": "times"},
      {"measurement": "percentage of active form of caspase 9", "setting": "caspase 9 in MCF-7 cells", "value": "72.1 ± 2.3", "unit": "%"},
      {"measurement": "cells with active NF-κB", "setting": "NF-κB in MCF-7 cells; MCF-7, 0.25 µM", "value": "25.5 ± 4.5", "unit": "%"},
      {"measurement": "cells with active NF-κB", "setting": "NF-κB in MCF-7 cells; MCF-7, 0.5 µM", "value": "19.8 ± 4.4", "unit": "%"},
      {"measurement": "cells with active beclin-1", "setting": "beclin-1 in MCF-7 cells", "value": "13.9 ± 2.6", "unit": "%"},
      {"measurement": "cells with active Bax", "setting": "Bax in MCF-7 cells; MCF-7, 0.25 µM", "value": "46.4 ± 6.6", "unit": "%"},
      {"measurement": "cells with active Bax", "setting": "Bax in MCF-7 cells; MCF-7, higher concentration (0.5 µM)", "value": "63.0 ± 1.6", "unit": "%"},
      {"measurement": "effect on cells with active mTOR (in words)", "setting": "mTOR in MCF-7 cells", "value": "decrease in the number of cells with active mTOR"},
      {"measurement": "effect on spheroid formation (in words)", "setting": "MCF-7 spheroids; 0.25 µM and 0.5 µM", "value": "slower formation of spheroids compared to untreated cells"},
      {"measurement": "spheroids smaller compared to the control", "setting": "MCF-7 spheroids; 0.5 µM, 24 h", "value": "approximately 86.37 ± 7.7%"},
      {"measurement": "apoptotic cells", "setting": "[5]; MCF-7, 0.25 µM", "value": "50.6 ± 3.5", "unit": "%"},
      {"measurement": "early and late apoptotic cells", "setting": "[5]; MCF-7, 0.5 µM", "value": "98.9 ± 1.6", "unit": "%"},
      {"measurement": "IC50 at 24 h", "setting": "in vitro", "value": "2300 ± 40", "unit": "nM"}
    ]}
  ]
}
